Measured values as given in ChEMBL document CHEMBL4483862, “Open-source discovery of chemical leads for next-generation chemoprotective antimalarials” (2018).

System: Plasmodium berghei
Assay: Luciferase/luciferin-expressing antifolate-resistant parasites were used to infect a culture of HepG2 cells that were pre-incubated with compounds. Infected hepatocytes emit light due to the luciferase reaction. Assay results are presented as the percent inhibition of light emission compared to control. […]
Format: functional
Conditions: sporozoite; for IC90: read-out: LUCIFERASE INFECTION ASSAY - IC90
[1] = read-out: LUCIFERASE INFECTION ASSAY - IC50

Compound | IC50 [1] [µM] | IC90 [µM] | also measured
CCOC(=O)c1ccc(N2CCN(C(=O)CCc3cc(C(C)(C)C)c(O)c(C(C)(C)C)c3)CC2)nc1 | > 10 | > 10 | 
CCN(c1ccc(NC(=O)c2cnccn2)cc1)C(C)C |  | > 10 | IC50 (FFLUC_HILL_SLOPE 1.65, FFLUC_R_SQUARED 0.318, PBLUC_HILL_SLOPE 0.412, PBLUC_R_SQUARED 0.204, read-out: LUCIFERASE INFECTION ASSAY - IC50): > 10 µM
CCCCNC(=O)c1c(NC(=O)c2ccc(C(=O)OC)cc2)nc2ccccn12 |  | > 8.37 | IC50 (PBLUC_HILL_SLOPE 12.3, PBLUC_R_SQUARED 0.245, read-out: LUCIFERASE INFECTION ASSAY - IC50): 7.76 µM
CCOC(=O)C1=C(CN2CCN(C(c3ccc(F)cc3)c3ccc(F)cc3)CC2)NC(=O)NC1CC (centres undefined) | > 10 | > 10 | 
CCN1CCC(N(C)c2ncnc3sc(-c4ccccc4)cc23)CC1 | > 10 | > 10 | 
CCOC(=O)c1oc2ccccc2c1CSc1nc2ccccc2c(=O)n1Cc1ccccc1 |  | 4.13 | IC50 (FFLUC_HILL_SLOPE 1.98, FFLUC_R_SQUARED 0.579, HEPG2TOX_HILL_SLOPE 1.74, HEPG2TOX_R_SQUARED 0.914, PBLUC_HILL_SLOPE 15.9, PBLUC_R_SQUARED 0.125, read-out: LUCIFERASE INFECTION ASSAY - IC50): 3.6 µM
CC(C)(C)c1cc2nc(C(F)(F)F)cc(SCCOC(=O)Nc3cccc(Cl)c3)n2n1 |  | > 6.98 | IC50 (HEPG2TOX_HILL_SLOPE 1.03, HEPG2TOX_R_SQUARED 0.0682, read-out: LUCIFERASE INFECTION ASSAY - IC50): > 6.98 µM
O=C(NNC(=S)Nc1cccc(C(F)(F)F)c1)c1cccn1-c1ccc(F)cc1 |  | > 7.81 | IC50 (HEPG2TOX_HILL_SLOPE 5.96, HEPG2TOX_R_SQUARED 0.739, PBLUC_HILL_SLOPE 1.03, PBLUC_R_SQUARED 0.767, read-out: LUCIFERASE INFECTION ASSAY - IC50): > 7.81 µM
Cc1ccc(-n2nnnc2SCc2ccccc2Cl)c(C)c1 |  | > 9.97 | IC50 (HEPG2TOX_HILL_SLOPE 1.94, HEPG2TOX_R_SQUARED 0.896, PBLUC_HILL_SLOPE 2.04, PBLUC_R_SQUARED 0.254, read-out: LUCIFERASE INFECTION ASSAY - IC50): 6.75 µM
CC(=O)c1cccc(-c2cnc3ccc(-c4cccc(C(=O)NCCO)c4)nn23)c1 |  | 2.32 | IC50 (HEPG2TOX_HILL_SLOPE 1.87, HEPG2TOX_R_SQUARED 0.674, PBLUC_HILL_SLOPE 4.19, PBLUC_R_SQUARED 0.651, read-out: LUCIFERASE INFECTION ASSAY - IC50): 1.38 µM
CCO/C=N/Nc1nc(C(F)(F)F)nc2c1cnn2-c1ccccc1 |  | > 10 | IC50 (FFLUC_HILL_SLOPE 12.8, FFLUC_R_SQUARED 0.468, PBLUC_HILL_SLOPE 1.59, PBLUC_R_SQUARED 0.442, read-out: LUCIFERASE INFECTION ASSAY - IC50): 4.62 µM
CC(C)(C(=O)NCc1ccccc1Br)n1cc(-c2ccc(OCCN3CCCC3)cc2)cn1 | > 10 | > 10 | 
CCc1cccc2c(C3=CCN(c4ncnc5c4cnn5C)CC3)c[nH]c12 | > 10 | > 10 | 
COc1ccc(CNC(=O)Cn2ncc(Cl)c(Cl)c2=O)cc1OC | > 10 | > 10 | 
Clc1ccc(SCc2cc(N3CCCCC3)nc(-c3ccccn3)n2)cc1 |  | 2.67 | IC50 (HEPG2TOX_HILL_SLOPE 3.02, HEPG2TOX_R_SQUARED 0.983, PBLUC_HILL_SLOPE 17.6, PBLUC_R_SQUARED 0.462, read-out: LUCIFERASE INFECTION ASSAY - IC50): 2.35 µM
CC1CC(NC(=S)NCc2csc3ccccc23)CC(C)(C)C1 (centres undefined) |  | > 9.52 | IC50 (PBLUC_HILL_SLOPE 0.667, PBLUC_R_SQUARED 0.384, read-out: LUCIFERASE INFECTION ASSAY - IC50): > 9.52 µM
CN1CCN(c2ccc(-c3cn4c(-c5cccc(OC(F)(F)F)c5)cnc4cn3)cn2)CC1 |  | > 7.26 | IC50 (PBLUC_HILL_SLOPE 2.39, PBLUC_R_SQUARED 0.449, read-out: LUCIFERASE INFECTION ASSAY - IC50): 5.98 µM
N#CC1(C#N)C2C=CC(C2)C1(C#N)C#N |  | > 17 | IC50 (PBLUC_HILL_SLOPE 1.54, PBLUC_R_SQUARED 0.0374, read-out: LUCIFERASE INFECTION ASSAY - IC50): > 17 µM
Cc1ccc(SC(=O)c2c(C)noc2-c2ccc(Cl)cc2)cc1 |  | > 9.6 | IC50 (HEPG2TOX_HILL_SLOPE 11.7, HEPG2TOX_R_SQUARED 0.856, PBLUC_HILL_SLOPE 3.58, PBLUC_R_SQUARED 0.522, read-out: LUCIFERASE INFECTION ASSAY - IC50): 7.62 µM
CC(NC(=O)Cc1ccc(-c2ccccc2)cc1)c1cccs1 (centres undefined) |  | 9.4 | IC50 (HEPG2TOX_HILL_SLOPE 1.66, HEPG2TOX_R_SQUARED 0.927, PBLUC_HILL_SLOPE 1.26, PBLUC_R_SQUARED 0.823, read-out: LUCIFERASE INFECTION ASSAY - IC50): 1.64 µM
O=S(=O)(c1ccc2oc(Nc3ccc(Nc4ccccc4)cc3)nc2c1)N1CCOCC1 |  | > 10 | IC50 (FFLUC_HILL_SLOPE 13.7, FFLUC_R_SQUARED 0.693, PBLUC_HILL_SLOPE 9.99, PBLUC_R_SQUARED 0.314, read-out: LUCIFERASE INFECTION ASSAY - IC50): 9.23 µM

Compound | IC50 [1] [µM] | IC90 [µM] | also measured
CC(C)c1ccc(N2C(=O)C=CC2=O)cc1 |  | > 15.3 | IC50 (HEPG2TOX_HILL_SLOPE 8.61, HEPG2TOX_R_SQUARED 0.25, PBLUC_HILL_SLOPE 3.82, PBLUC_R_SQUARED 0.327, read-out: LUCIFERASE INFECTION ASSAY - IC50): 9.69 µM
CCN(CC)S(=O)(=O)c1ccc(C(C)NC(=O)c2nn(CC)c(=O)c3ccccc23)cc1 (centres undefined) |  | 4.01 | IC50 (PBLUC_HILL_SLOPE 3.22, PBLUC_R_SQUARED 0.606, read-out: LUCIFERASE INFECTION ASSAY - IC50): 2.02 µM
COc1ccc(C2CCCN2Cc2cc(=O)oc3cc(C)c(Cl)cc23)c(OC)c1 (centres undefined) |  | > 10 | IC50 (PBLUC_HILL_SLOPE 2.17, PBLUC_R_SQUARED 0.455, read-out: LUCIFERASE INFECTION ASSAY - IC50): 6.43 µM
O=C(CCc1c(-c2ccc(F)cc2)[nH]c2ccc(F)cc12)N1CCN(c2ccncc2)CC1 |  | 8.48 | IC50 (PBLUC_HILL_SLOPE 5.15, PBLUC_R_SQUARED 0.285, read-out: LUCIFERASE INFECTION ASSAY - IC50): 5.53 µM
COc1ccc(Nc2nnc(SC(C)C(=O)Nc3sccc3C(N)=O)s2)cc1 (centres undefined) | > 10 | > 10 | 
COc1ccc(CCn2cnc3c(cnn3-c3ccc(C)cc3)c2=O)cc1 |  | 0.133 | IC50 (FFLUC_HILL_SLOPE 2.44, FFLUC_R_SQUARED 0.232, HEPG2TOX_HILL_SLOPE 1.29, HEPG2TOX_R_SQUARED 0.958, PBLUC_HILL_SLOPE 8.61, PBLUC_R_SQUARED 0.878, read-out: LUCIFERASE INFECTION ASSAY - IC50): 0.103 µM
Cc1ccc(-c2csc3ncn(CC(=O)c4cc(C)n(C5CCS(=O)(=O)C5)c4C)c(=O)c23)cc1 (centres undefined) | > 10 | > 10 | 
CC(C)c1ccc(NC(=O)Nc2ccc3nc(-c4ccco4)nn3c2)cc1 | > 10 | > 10 | 
CCCn1nc(C(=O)OCC(=O)c2cc(C)n(CC(F)(F)F)c2C)c2ccccc2c1=O |  | > 10 | IC50 (PBLUC_HILL_SLOPE 0.53, PBLUC_R_SQUARED 0.241, read-out: LUCIFERASE INFECTION ASSAY - IC50): > 10 µM
Cc1ccc(-n2ncc(C(=O)Nc3ccncc3)c2C2CC2)cc1Cl |  | 7.69 | IC50 (HEPG2TOX_HILL_SLOPE 0.617, HEPG2TOX_R_SQUARED 0.925, PBLUC_HILL_SLOPE 1.2, PBLUC_R_SQUARED 0.513, read-out: LUCIFERASE INFECTION ASSAY - IC50): 1.23 µM
Cc1cccc(C=C(C(=O)Nc2ccccc2Cl)C(=O)Nc2ccccc2Cl)c1 | > 10 | > 10 | 
NC(=O)c1cccc(-c2cn3c(-c4ccc(F)c(Cl)c4)cnc3cn2)c1 |  | > 9 | IC50 (PBLUC_HILL_SLOPE 2.55, PBLUC_R_SQUARED 0.396, read-out: LUCIFERASE INFECTION ASSAY - IC50): 5.28 µM
O=C(CN1CCC(Cc2ccccc2)CC1)NCc1ccc(F)cc1 |  | 4.07 | IC50 (PBLUC_HILL_SLOPE 12.9, PBLUC_R_SQUARED 0.271, read-out: LUCIFERASE INFECTION ASSAY - IC50): 3.43 µM
COc1ccccc1NC(=S)N/N=C(C)/C=C/C1C(C)=CCCC1(C)C (centres undefined) | > 10 | > 10 | 
CCc1ccc(CC)c(-c2csc(N/C(C)=C(\C#N)C(N)=O)n2)c1 |  | > 10 | IC50 (HEPG2TOX_HILL_SLOPE 12.4, HEPG2TOX_R_SQUARED 0.749, PBLUC_HILL_SLOPE 4.61, PBLUC_R_SQUARED 0.122, read-out: LUCIFERASE INFECTION ASSAY - IC50): 8.16 µM
O=C(NC1CCCc2ccccc21)c1cc(-c2cccs2)nn1-c1ccccc1 (centres undefined) |  | > 10 | IC50 (FFLUC_HILL_SLOPE 14.9, FFLUC_R_SQUARED 0.608, PBLUC_HILL_SLOPE 2.01, PBLUC_R_SQUARED 0.0278, read-out: LUCIFERASE INFECTION ASSAY - IC50): 6.82 µM
O=C(Nc1ccc(-c2csc(N3CCOCC3)n2)cc1)c1ccc(Br)c([N+](=O)[O-])c1 | > 10 | > 10 | 
O=C1OC(c2ccccc2)=N/C1=C\c1ccc([N+](=O)[O-])s1 | > 11 | > 11 | 
Cn1ccc2cc(-c3cn4c(-c5ccc(C#N)cc5)cnc4cn3)ccc21 |  | 0.546 | IC50 (HEPG2TOX_HILL_SLOPE 1.34, HEPG2TOX_R_SQUARED 0.963, PBLUC_HILL_SLOPE 3.57, PBLUC_R_SQUARED 0.761, read-out: LUCIFERASE INFECTION ASSAY - IC50): 0.295 µM
CC(=O)Nc1cccc(-c2ccc3ncc(-c4ccc(CO)cc4)n3n2)c1 | 2.73 | 8.06 | 
Cc1cc2oc(=O)cc(COC(=O)c3cccc(S(=O)(=O)N(Cc4ccccc4)c4cccc(C(F)(F)F)c4)c3)c2cc1C(C)C | > 10 | > 10 | 
